Source: publication PMC10094617, “Iron(III) Complexes with Non-Steroidal Anti-Inflammatory Drugs: Structure, Antioxidant and Anticholinergic Activity, and Interaction with Biomolecules” (International Journal of Molecular Sciences, 2023)
Structures can show the parent of a compound that is named as a salt.

Columns and labels:
DPPH radical scavenging = assay type: biochemical; conditions: compound 0.1 mM, ethanol
Procedure: (§1) The antioxidant activity of complexes 1–3 was evaluated via their ability to scavenge the free radicals DPPH, hydroxyl, and ABTS. Each experiment was performed in triplicate and the standard deviation of absorbance was less than 10% of the mean.
Ethanol was also used as a control solution. The absorbance at 517 nm was recorded at room temperature, two times, after 20 and 60 min, in order to examine the time-dependence of the DPPH-scavenging activity. The DPPH-scavenging activity of the compounds was expressed as the percentage reduction of the absorbance values of the initial DPPH solution (RA%). The compounds NDGA and BHT were used as reference compounds.

[1] = target: T1, electric eel acetylcholinesterase (eeAChE) (Electrophorus electricus, UniProt O42275); test: Inhibition of acetylcholinesterase (modified Ellman's method); assay type: biochemical; conditions: 10^−3 M of the compound, pH 7.4, 37 °C; for inhibition at 1000 µM: read-out: AChE (I%) inhibition rate
T1 construct: purchased J&K Scientific Co. (Beijing, China)
T1 sequence (O42275 24-633): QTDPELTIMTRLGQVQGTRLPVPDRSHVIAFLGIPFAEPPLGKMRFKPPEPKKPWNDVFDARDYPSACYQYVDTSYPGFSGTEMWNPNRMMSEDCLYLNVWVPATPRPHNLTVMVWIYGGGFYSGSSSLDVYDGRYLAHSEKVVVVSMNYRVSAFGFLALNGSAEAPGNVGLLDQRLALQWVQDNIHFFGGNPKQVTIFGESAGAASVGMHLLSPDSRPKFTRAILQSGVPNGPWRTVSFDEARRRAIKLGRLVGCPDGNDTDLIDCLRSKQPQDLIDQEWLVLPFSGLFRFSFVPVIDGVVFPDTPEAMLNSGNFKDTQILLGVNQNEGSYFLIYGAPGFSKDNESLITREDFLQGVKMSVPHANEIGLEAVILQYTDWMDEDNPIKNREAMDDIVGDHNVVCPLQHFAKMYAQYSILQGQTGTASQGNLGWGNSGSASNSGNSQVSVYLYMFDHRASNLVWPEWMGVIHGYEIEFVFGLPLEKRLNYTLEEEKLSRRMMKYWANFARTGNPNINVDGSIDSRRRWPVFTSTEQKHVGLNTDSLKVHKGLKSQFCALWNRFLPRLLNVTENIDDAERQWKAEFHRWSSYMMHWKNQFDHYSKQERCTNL
Procedure: (§2) In the study of cholinesterase inhibitors, the inhibitory effect of the compounds (the NSAIDs and their complexes 1–3) against AChE and BuChE was examined using a modified methodology based on Ellman’s method.
(§3) The ability of the compounds to inhibit AChE and BuChE was evaluated using UV-vis spectroscopy. All the assays were carried out in a 0.1M NaH2PO4/Na2HPO4 buffer at a pH = 7.4. Enzyme solutions were prepared with 2.0 U/mL for AChE and 3.0 U/mL for BuChE. A reaction mixture containing 20 μL of phosphate buffer, 100 μL of DTNB (1-mM), and 40 μL of the enzyme (AChE and BuChE) was incubated with 20 μL of the compounds at various concentrations at 37 °C for 15 min. The reaction was started by the addition of the substrate (20-μL) of ATCI or BTCI solution (1-mM), respectively, and incubation for additional 3 min.
(§4) The enzyme activity was determined by measuring the increase in absorbance at 2-min intervals at 412 nm at 37 °C (ε = 14,150 M^−1cm^−1).
The rate of inhibition of each enzyme by the compounds was calculated according to the following expression:(1) I%=(1−VB/VA)×100 where VB and VA indicate the absorbance measured for ChEs in the presence and absence of inhibitors, respectively. The results are expressed as the average of three repetitions of the tests performed and the standard deviation was less than 3% of the mean. The selectivity index (SI), defined as IC50 BuChE/IC50 AChE, was also calculated. Neostigmine methyl sulfate was used as the appropriate standard.

[2] = target: T2, equine serum butyrylcholinesterase (eqBuChE) (Equus caballus, UniProt P81908); test: Inhibition of butyrylcholinesterase (modified Ellman's method); assay type: biochemical; conditions: for inhibition at 1000 µM: read-out: BuChE (I%) inhibition rate; for SI (selectivity index = IBuChE/IAChE): ratio of inhibition rates at 10^−3 M
T2 construct: purchased J&K Scientific Co. (Beijing, China); host or cells: equine serum (by the product's name)
T2 sequence (P81908 whole entry): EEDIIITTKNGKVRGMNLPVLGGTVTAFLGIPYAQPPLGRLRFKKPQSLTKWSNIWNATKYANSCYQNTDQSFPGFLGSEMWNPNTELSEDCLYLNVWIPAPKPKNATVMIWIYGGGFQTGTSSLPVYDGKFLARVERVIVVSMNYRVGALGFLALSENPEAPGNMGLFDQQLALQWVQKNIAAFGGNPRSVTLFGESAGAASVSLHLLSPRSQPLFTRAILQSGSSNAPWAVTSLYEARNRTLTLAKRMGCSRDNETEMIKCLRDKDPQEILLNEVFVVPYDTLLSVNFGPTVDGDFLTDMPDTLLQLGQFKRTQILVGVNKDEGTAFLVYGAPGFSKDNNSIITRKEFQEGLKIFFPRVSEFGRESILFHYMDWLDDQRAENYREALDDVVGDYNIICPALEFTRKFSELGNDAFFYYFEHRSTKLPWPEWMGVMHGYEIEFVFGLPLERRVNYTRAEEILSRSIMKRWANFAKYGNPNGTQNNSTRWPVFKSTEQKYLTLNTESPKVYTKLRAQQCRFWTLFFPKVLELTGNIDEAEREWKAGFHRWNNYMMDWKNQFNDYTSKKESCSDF
Procedure: as §2, §3, §4
The rate of inhibition of each enzyme by the compounds was calculated according to the following expression:(1) I%=(1−VB/VA)×100 where VB and VA indicate the absorbance measured for ChEs in the presence and absence of inhibitors, respectively. […] Neostigmine methyl sulfate was used as the appropriate standard.

[3] = Competition with DMSO for hydroxyl radicals; assay type: biochemical; conditions: compound 0.1 mM; 30 min, 37 °C, pH 7.4
Procedure: as §1
Competition of the tested compounds with DMSO for hydroxyl radicals: The hydroxyl radicals generated by the Fe^3+/ascorbic acid system were detected according to Nash by the determination of formaldehyde produced from the oxidation of DMSO [155]. The reaction mixture contained EDTA (0.1 mM), Fe^3+ (167 μM), DMSO (33 mM) in phosphate buffer (50 mM, pH 7.4), complexes 1–3 (concentration 0.1 mM), and ascorbic acid (10 mM). After a 30-min incubation at 37 °C, the reaction was stopped with CCl3COOH (17% w/v) and the absorbance at λ = 412 nm was measured. Trolox was used as a reference compound. The competition of the compounds with DMSO for •OH, generated by the Fe^3+/ascorbic acid system, expressed as the percentage of inhibition of formaldehyde production, was used for the evaluation of their hydroxyl radical-scavenging activity (OH%).

[4] = ABTS radical cation scavenging; assay type: biochemical; conditions: compound 0.1 mM; 1 min after mixing
Procedure: as §1
Assay of radical cation scavenging activity (ABTS^+•): An ABTS cationic radical (ABTS^+•) was produced by reacting an aqueous stock solution (2 mM) of ABTS with 0.17-mM potassium persulfate and allowing the mixture to stand in the dark at room temperature for 12–16 h before use. […] Although the oxidation of ABTS commenced immediately, the absorbance became maximal and stable after 6 h. The radical was stable in this form for more than two days when stored in the dark at room temperature. The ABTS radical solution was diluted with ethanol to an absorbance of 0.70 at 734 nm. After the addition of 10 μL of complexes 1–3 or the standards (0.1 mM) in DMSO, the absorbance was recorded exactly 1 min after initial mixing. The radical scavenging activity of the complexes was expressed as the percentage inhibition of the absorbance of the initial ABTS solution (ABTS%). Trolox was used as a reference compound.

EB–DNA adduct (CT DNA) = test: EB-displacement from EB–DNA adduct (fluorescence emission); assay type: binding, calf
Procedure: EB-displacement studies: The competition of complexes 1–3 with EB was investigated by fluorescence emission spectroscopy in order to examine whether the complexes can displace EB from its DNA–EB conjugate. The DNA–EB conjugate was prepared by adding 20-μM EB and 26-μM CT DNA in the buffer solution (150-mM NaCl and 15-mM trisodium citrate at pH 7.0). The possible intercalating effect of the complexes was studied by the addition of a certain amount of a solution of the compound into a solution of the DNA–EB conjugate. The influence of each compound to the DNA–EB complex solution was obtained by recording the changes in the fluorescence emission spectra with the excitation wavelength (λex) at 540 nm.
The Stern–Volmer constant KSV is used to evaluate the quenching efficiency for each compound according to the Stern–Volmer equation (Equation (3)), where Io and I are the emission intensities in the absence and the presence of the quencher, respectively, and [Q] is the concentration of the quencher (i.e., complexes 1–3). The value of KSV is obtained from the Stern–Volmer plots by using the slope of the diagram Io/I versus [Q]. Taking τo = 23 ns as the fluorescence lifetime of the EB–DNA system, the EB–DNA quenching constants (Kq, in M^−1s^−1) of the compounds can be determined according to Equation (4).

[5] = Solubility of the complexes; assay type: physicochemical
[6] = design: method as in PMID 8216032; conditions: cited from earlier work
calf-thymus (CT) DNA = target: calf-thymus (CT) DNA; design: method as in PMID 3427013; conditions: cited from earlier work
[7] = 10^−3 M of the compound, pH 7.4, 37 °C

Row | SMILES | DPPH% (DPPH scavenging ability), 20 min (DPPH radical scavenging) [%] | DPPH% (DPPH scavenging ability), 60 min (DPPH radical scavenging) [%] | OH% (competition % with DMSO for hydroxyl radical) [3] [%] | ABTS% (ABTS radical scavenging activity) [4] [%] | inhibition at 1000 µM [1] [%] | inhibition at 1000 µM [2, 7] [%] | SI (selectivity index = IBuChE/IAChE) [2] | also measured
1 | Cc1cc(C(C)(C)C)c(O)c(C(C)(C)C)c1 [BHT, butylated hydroxytoluene] | 31.30 ± 0.10 | 60.00 ± 0.38 | – | – | – | – | – | –
2 | C[O-].C[O-].O.O=C([O-])c1cc(-c2ccc(F)cc2F)ccc1[O-].O=C([O-])c1cc(-c2ccc(F)cc2F)ccc1[O-].[Fe+3].[Fe+3].c1cnc2c(c1)ccc1cccnc12.c1cnc2c(c1)ccc1cccnc12 [Complex 1, [Fe2(difl)2(MeO)2(phen)2]∙H2O] | 12.57 ± 0.29 | 15.86 ± 0.62 | 91.08 ± 1.81 | 85.38 ± 0.92 | – | – | – | AChE (I%) inhibition rate [1]: 1.77 ± 0.82%; BuChE (I%) inhibition rate [2, 7]: 79.25 ± 2.00%; KSV Stern–Volmer constant (EB–DNA) (EB–DNA adduct (CT DNA); EB–DNA fluorescence): 6.37 (±0.40) × 10^5 M^−1; ΔI/Io (%) EB–DNA fluorescence quenching (EB–DNA adduct (CT DNA); [EB] = 20 μM, [DNA] = 26 μM, λex 540 nm, λem 592 nm): 66.8%; Kq quenching constant of the EB–DNA fluorescence (EB–DNA adduct (CT DNA); τo = 23 ns): 2.77 (±0.10) × 10^13 M^−1s^−1; solubility [5]: Soluble in DMF and DMSO
3 | O=C(O)c1cc(-c2ccc(F)cc2F)ccc1O [Complex H2difl, Diflunisal] | 10.42 ± 0.56 | 14.31 ± 0.45 | 86.06 ± 0.38 | 76.58 ± 0.74 | 17.2 ± 1.46 | 22.9 ± 1.71 | 1.32 | half-life period of activity [6]: ~ 12 h
4 | CC[n+]1c(-c2ccccc2)c2cc(N)ccc2c2ccc(N)cc21.[Br-] [EB, 3,8-diamino-5-ethyl-6-phenyl-phenanthridinium bromide] | – | – | – | – | – | – | – | Kb DNA-binding constant of the classical intercalator EB (calf-thymus (CT) DNA): 1.23 (±0.07) × 10^5 M^−1
5 | CC(Cc1ccc(O)c(O)c1)C(C)Cc1ccc(O)c(O)c1 (centres unmarked) [NDGA, nordihydroguaiaretic acid] | 81.02 ± 0.18 | 82.60 ± 0.17 | – | – | – | – | – | –
6 | O=C(O)Cc1ccccc1Nc1c(Cl)cccc1Cl [Nadicl, Sodium diclofenac] | 18.26 ± 0.60 | 17.43 ± 0.23 | 75.46 ± 0.44 | 76.35 ± 0.75 | 10.3 ± 1.75 | 14.1 ± 0.12 | 1.37 | –
7 | CN(C)C(=O)Oc1cccc([N+](C)(C)C)c1 [Neo, Neostigmine methyl sulfate] | – | – | – | – | 96.98 ± 0.02 | 98.4 ± 1.55 | 1.01 | –
8 | Cc1c(C)c2c(c(C)c1O)CCC(C)(C(=O)O)O2 (centres unmarked) [Trolox, 6-hydroxy-2,5,7,8-tetramethylchromane-2-carboxylic acid, reference compound] | – | – | 82.80 ± 0.13 | 91.8 ± 0.17 | – | – | – | –
